# Measurements as given in patent US20190292189A1, “LIM KINASE INHIBITORS” (VIRONGY, LLC, priority 2016, published 2019).
# Key:
# Assay in all cases: Kinase profiling at 1 μM (Reaction Biology)
# Assay type in all cases: biochemical
# Details in all cases: ATP 10 μM
# [1] = biological target: T1, ALK (Homo sapiens, UniProt Q9UM73)
# T1 construct: purchased Reaction Biology Corporation
# Procedure: (§1) Profiling was carried out at Reaction Biology Corporation following a protocol described at its website: http://www.reactionbiology.com/webapps/site/. The % data were the average from two determinations. ATP concentration used: 10 μM; Staurosporine was used as the positive control.
# (§2) Biochemical assays for all Limk inhibitors and kinase profiling were carried out in Reaction Biology Corporation and followed the protocols described on its website. […] Compounds were tested at 1 μM with duplicate experiments in profiling assays. […] Reactions were carried out at 10 μM ATP, 1 μM substrate cofilin, and 50 nM Limk1 (final concentrations).
# [2] = biological target: T2, AMPK(A1/B1/G1) (Homo sapiens, UniProt Q13131)
# T2 construct: purchased Reaction Biology Corporation
# Procedure: as §1, §2
# [3] = biological target: T3, Aurora A (Homo sapiens, UniProt O14965)
# T3 construct: purchased Reaction Biology Corporation
# Procedure: as §1, §2
# [4] = biological target: T4, BTK (Homo sapiens, UniProt Q06187)
# T4 construct: purchased Reaction Biology Corporation
# Procedure: as §1, §2
# [5] = biological target: T5, CDK2/cyclin A (Homo sapiens, UniProt P24941)
# T5 construct: purchased Reaction Biology Corporation
# Procedure: as §1, §2
# [6] = biological target: T6, CK1d (Homo sapiens, UniProt P48730)
# T6 construct: purchased Reaction Biology Corporation
# T6 sequence (P48730 whole entry): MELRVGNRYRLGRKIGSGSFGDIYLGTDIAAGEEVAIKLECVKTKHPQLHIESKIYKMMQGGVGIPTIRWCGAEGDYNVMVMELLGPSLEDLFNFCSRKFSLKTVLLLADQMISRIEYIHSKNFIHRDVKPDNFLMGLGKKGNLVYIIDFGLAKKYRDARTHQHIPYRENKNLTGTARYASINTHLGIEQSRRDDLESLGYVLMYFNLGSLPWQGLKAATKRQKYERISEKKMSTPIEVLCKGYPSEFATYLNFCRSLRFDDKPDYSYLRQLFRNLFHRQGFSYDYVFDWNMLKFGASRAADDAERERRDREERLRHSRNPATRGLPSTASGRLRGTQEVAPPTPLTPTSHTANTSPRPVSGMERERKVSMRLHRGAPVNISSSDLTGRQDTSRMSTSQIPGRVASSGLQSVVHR
# Procedure: as §1, §2
# [7] = biological target: T7, CK2a (Homo sapiens, UniProt P68400)
# T7 construct: purchased Reaction Biology Corporation
# Procedure: as §1, §2
# [8] = biological target: T8, DAPK1 (Homo sapiens, UniProt P53355)
# T8 construct: purchased Reaction Biology Corporation
# Procedure: as §1, §2
# [9] = biological target: T9, EPHA3 (Homo sapiens, UniProt P29320)
# T9 construct: purchased Reaction Biology Corporation
# Procedure: as §1, §2
# [10] = biological target: T10, FGFR1 (Homo sapiens, UniProt P11362)
# T10 construct: purchased Reaction Biology Corporation
# Procedure: as §1, §2
# [11] = biological target: T11, IGFIR (Homo sapiens, UniProt P08069)
# T11 construct: purchased Reaction Biology Corporation
# T11 sequence (P08069 31-1367): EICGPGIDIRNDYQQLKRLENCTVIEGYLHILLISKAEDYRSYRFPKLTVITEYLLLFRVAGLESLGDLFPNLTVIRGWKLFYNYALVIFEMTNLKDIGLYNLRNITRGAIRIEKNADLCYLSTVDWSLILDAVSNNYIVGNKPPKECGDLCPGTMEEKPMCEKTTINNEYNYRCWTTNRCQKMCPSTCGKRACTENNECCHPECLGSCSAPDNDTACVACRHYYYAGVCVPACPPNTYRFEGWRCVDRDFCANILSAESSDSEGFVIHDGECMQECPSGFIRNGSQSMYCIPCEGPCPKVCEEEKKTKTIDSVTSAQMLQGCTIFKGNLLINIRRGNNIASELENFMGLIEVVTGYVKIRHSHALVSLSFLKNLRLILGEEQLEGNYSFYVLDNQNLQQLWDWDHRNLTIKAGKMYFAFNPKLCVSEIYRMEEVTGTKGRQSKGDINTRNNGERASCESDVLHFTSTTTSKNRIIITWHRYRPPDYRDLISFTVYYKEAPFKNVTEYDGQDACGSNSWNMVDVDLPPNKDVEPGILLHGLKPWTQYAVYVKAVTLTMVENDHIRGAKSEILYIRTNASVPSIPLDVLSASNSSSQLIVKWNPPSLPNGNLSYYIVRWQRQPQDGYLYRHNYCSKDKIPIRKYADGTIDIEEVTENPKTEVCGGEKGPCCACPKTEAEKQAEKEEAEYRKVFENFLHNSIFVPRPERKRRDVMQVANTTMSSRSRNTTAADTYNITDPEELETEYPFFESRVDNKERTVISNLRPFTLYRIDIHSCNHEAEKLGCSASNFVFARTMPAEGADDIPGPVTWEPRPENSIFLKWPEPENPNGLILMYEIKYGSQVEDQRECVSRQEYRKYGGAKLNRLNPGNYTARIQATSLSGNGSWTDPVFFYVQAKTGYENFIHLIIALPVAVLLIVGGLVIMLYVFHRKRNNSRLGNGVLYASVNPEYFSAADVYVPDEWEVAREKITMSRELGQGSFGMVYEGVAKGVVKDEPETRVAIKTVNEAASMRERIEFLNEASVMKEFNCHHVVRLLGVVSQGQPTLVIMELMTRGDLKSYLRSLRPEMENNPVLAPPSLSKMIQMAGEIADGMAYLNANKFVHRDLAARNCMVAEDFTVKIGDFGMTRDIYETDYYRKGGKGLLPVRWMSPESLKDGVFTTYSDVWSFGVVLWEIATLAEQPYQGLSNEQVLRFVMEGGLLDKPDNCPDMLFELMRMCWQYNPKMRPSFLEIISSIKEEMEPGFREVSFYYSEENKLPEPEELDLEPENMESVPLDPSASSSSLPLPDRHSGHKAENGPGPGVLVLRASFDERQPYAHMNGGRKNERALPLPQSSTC
# Procedure: as §1, §2
# [12] = biological target: T12, IKKa/CHUK (Homo sapiens, UniProt O15111)
# T12 construct: purchased Reaction Biology Corporation
# Procedure: as §1, §2
# [13] = biological target: T13, IKKb/IKBKB (Homo sapiens, UniProt O14920)
# T13 construct: purchased Reaction Biology Corporation
# Procedure: as §1, §2
# [14] = biological target: T14, JAK3 (Homo sapiens, UniProt P52333)
# T14 construct: purchased Reaction Biology Corporation
# T14 sequence (P52333 whole entry): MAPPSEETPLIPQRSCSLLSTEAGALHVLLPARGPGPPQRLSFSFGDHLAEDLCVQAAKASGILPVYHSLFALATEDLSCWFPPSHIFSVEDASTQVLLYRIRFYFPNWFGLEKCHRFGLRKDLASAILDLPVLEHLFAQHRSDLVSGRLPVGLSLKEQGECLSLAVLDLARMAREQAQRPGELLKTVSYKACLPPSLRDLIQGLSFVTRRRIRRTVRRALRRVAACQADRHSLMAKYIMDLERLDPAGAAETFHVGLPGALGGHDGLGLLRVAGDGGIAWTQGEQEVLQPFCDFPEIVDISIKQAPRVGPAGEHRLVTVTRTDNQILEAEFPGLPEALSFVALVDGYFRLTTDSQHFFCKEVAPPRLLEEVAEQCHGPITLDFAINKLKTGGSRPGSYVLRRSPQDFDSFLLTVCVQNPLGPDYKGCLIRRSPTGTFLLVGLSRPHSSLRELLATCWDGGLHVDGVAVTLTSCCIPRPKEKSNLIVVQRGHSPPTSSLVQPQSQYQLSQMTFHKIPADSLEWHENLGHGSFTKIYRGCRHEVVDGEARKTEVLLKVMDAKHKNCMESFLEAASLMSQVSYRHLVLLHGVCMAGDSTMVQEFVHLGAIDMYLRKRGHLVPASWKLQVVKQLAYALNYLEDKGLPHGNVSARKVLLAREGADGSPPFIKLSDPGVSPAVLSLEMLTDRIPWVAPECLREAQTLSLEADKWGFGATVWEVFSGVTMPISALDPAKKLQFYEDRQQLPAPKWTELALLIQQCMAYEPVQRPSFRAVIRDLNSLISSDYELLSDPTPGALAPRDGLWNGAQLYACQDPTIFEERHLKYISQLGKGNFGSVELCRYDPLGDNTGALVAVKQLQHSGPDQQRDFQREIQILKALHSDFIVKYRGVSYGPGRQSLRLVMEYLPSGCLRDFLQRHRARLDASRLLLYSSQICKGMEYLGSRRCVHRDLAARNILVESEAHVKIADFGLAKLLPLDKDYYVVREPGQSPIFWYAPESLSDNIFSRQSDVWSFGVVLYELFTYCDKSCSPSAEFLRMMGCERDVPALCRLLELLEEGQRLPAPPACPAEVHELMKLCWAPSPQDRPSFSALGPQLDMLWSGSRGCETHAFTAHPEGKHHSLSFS
# Procedure: as §1, §2
# [15] = biological target: T15, JNK1 (Homo sapiens, UniProt P45983)
# T15 construct: purchased Reaction Biology Corporation
# Procedure: as §1, §2
# [16] = biological target: JNK3 (Homo sapiens, UniProt P53779)
# Procedure: as §1, §2
# [17] = biological target: T16, MEK1 (Homo sapiens, UniProt Q02750)
# T16 construct: purchased Reaction Biology Corporation
# T16 sequence (Q02750 whole entry): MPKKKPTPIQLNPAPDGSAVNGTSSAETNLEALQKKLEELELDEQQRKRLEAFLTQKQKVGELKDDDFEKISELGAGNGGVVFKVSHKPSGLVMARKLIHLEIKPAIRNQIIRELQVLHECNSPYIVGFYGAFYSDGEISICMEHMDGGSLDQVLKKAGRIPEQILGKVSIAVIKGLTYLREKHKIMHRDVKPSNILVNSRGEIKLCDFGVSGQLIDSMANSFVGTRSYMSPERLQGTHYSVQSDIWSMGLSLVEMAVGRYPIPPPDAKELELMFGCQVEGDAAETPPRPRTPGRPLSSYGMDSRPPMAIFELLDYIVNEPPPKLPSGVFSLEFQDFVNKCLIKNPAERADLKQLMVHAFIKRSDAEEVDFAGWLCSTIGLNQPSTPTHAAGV
# Procedure: as §1, §2
# [18] = biological target: T17, MRCKa/CDC42BPA (Homo sapiens, UniProt Q5VT25)
# T17 construct: purchased Reaction Biology Corporation
# Procedure: as §1, §2
# [19] = biological target: T18, NEK1 (Homo sapiens, UniProt Q96PY6)
# T18 construct: purchased Reaction Biology Corporation
# Procedure: as §1, §2
# [20] = biological target: T19, P38a/MAPK14 (Homo sapiens, UniProt Q16539)
# T19 construct: purchased Reaction Biology Corporation
# Procedure: as §1, §2
# [21] = biological target: T20, PAK2 (Homo sapiens, UniProt Q13177)
# T20 construct: purchased Reaction Biology Corporation
# Procedure: as §1, §2
# [22] = biological target: T21, PDGFRb (Homo sapiens, UniProt P09619)
# T21 construct: purchased Reaction Biology Corporation
# Procedure: as §1, §2
# [23] = biological target: T22, PIM2 (Homo sapiens, UniProt Q9P1W9)
# T22 construct: purchased Reaction Biology Corporation
# T22 sequence (Q9P1W9 whole entry): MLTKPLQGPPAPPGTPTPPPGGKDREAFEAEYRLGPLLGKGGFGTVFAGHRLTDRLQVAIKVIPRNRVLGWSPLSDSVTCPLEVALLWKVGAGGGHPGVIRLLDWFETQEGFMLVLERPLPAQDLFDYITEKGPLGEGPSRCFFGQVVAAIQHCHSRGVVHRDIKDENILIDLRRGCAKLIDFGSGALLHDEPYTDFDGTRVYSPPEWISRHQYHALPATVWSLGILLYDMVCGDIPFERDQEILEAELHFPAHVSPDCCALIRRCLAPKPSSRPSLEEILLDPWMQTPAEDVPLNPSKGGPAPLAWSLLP
# Procedure: as §1, §2
# [24] = biological target: T23, PKA (Homo sapiens, UniProt P17612)
# T23 construct: purchased Reaction Biology Corporation
# Procedure: as §1, §2
# [25] = biological target: T24, PKN1/PRK1 (Homo sapiens, UniProt Q16512)
# T24 construct: purchased Reaction Biology Corporation
# Procedure: as §1, §2
# [26] = biological target: T25, R5K1 (Homo sapiens, UniProt Q15418)
# T25 construct: purchased Reaction Biology Corporation
# Procedure: as §1, §2
# [27] = biological target: T26, ROCK1 (Homo sapiens, UniProt Q13464)
# T26 construct: purchased Reaction Biology Corporation
# Procedure: as §1, §2
# [28] = biological target: T27, ROCK2 (Homo sapiens, UniProt O75116)
# T27 construct: purchased Reaction Biology Corporation
# Procedure: as §1, §2
# [29] = biological target: T28, SGK1 (Homo sapiens, UniProt O00141)
# T28 construct: purchased Reaction Biology Corporation
# Procedure: as §1, §2
# [30] = biological target: T29, SLK/STK2 (Homo sapiens, UniProt Q9H2G2)
# T29 construct: purchased Reaction Biology Corporation
# Procedure: as §1, §2
# [31] = biological target: T30, STK16 (Homo sapiens, UniProt O75716)
# T30 construct: purchased Reaction Biology Corporation
# Procedure: as §1, §2
# [32] = biological target: T31, TAK1 (Homo sapiens, UniProt O43318)
# T31 construct: purchased Reaction Biology Corporation
# Procedure: as §1, §2
# [33] = biological target: T32, TBK1 (Homo sapiens, UniProt Q9UHD2)
# T32 construct: purchased Reaction Biology Corporation
# Procedure: as §1, §2
# [34] = biological target: T33, TLK1 (Homo sapiens, UniProt Q9UKI8)
# T33 construct: purchased Reaction Biology Corporation
# T33 sequence (Q9UKI8 whole entry): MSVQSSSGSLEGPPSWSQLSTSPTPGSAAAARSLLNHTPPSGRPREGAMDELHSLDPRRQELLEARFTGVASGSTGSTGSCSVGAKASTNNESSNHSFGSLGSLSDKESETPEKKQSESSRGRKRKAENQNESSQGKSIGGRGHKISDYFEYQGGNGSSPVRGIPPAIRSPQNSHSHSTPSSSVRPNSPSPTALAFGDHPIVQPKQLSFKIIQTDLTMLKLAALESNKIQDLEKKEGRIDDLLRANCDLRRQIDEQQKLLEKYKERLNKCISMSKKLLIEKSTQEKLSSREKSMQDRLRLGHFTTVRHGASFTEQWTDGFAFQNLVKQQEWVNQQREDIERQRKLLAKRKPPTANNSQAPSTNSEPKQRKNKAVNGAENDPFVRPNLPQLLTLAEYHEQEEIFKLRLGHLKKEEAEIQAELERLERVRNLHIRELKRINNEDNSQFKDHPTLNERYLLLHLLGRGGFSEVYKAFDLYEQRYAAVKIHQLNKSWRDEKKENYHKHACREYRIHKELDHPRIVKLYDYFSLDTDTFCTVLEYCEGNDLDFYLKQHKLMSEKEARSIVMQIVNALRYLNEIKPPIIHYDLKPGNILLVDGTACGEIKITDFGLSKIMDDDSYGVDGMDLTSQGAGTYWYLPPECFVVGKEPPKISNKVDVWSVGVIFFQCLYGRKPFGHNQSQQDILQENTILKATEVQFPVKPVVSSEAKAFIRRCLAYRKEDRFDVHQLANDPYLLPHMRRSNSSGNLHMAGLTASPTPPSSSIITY
# Procedure: as §1, §2
# [35] = biological target: T34, ZIPK/DAPK3 (Homo sapiens, UniProt O43293)
# T34 construct: purchased Reaction Biology Corporation
# Procedure: as §1, §2
# [36] = biological target: T35, c-5rc (Homo sapiens, UniProt P12931)
# T35 construct: purchased Reaction Biology Corporation
# T35 sequence (P12931 whole entry): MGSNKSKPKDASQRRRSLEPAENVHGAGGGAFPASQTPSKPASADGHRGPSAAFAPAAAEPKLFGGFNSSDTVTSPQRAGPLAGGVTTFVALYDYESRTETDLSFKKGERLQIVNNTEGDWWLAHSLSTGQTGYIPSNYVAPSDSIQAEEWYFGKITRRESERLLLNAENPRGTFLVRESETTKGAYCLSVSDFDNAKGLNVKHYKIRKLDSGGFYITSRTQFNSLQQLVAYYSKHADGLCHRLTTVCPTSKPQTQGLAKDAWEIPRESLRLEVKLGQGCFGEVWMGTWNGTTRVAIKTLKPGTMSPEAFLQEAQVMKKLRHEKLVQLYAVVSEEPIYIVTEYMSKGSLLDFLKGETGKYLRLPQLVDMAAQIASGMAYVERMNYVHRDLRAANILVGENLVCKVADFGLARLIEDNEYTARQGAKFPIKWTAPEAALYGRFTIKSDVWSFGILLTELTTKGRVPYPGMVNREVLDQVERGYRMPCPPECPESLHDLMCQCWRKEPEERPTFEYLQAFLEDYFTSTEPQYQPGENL
# Procedure: as §1, §2
# [37] = biological target: T36, c-Kit (Homo sapiens, UniProt P10721)
# T36 construct: purchased Reaction Biology Corporation
# Procedure: as §1, §2
# [38] = biological target: T37, p70S6K/RPS6KB1 (Homo sapiens, UniProt P23443)
# T37 construct: purchased Reaction Biology Corporation
# Procedure: as §1, §2
smiles,measurement,setting,value
"COC(=O)c1ccc2[nH]c(C3CCN(c4ncnc5[nH]cc(Cl)c45)CC3)nc2c1 [Compound R10015, Methyl 2-(1-(5-chloro-7H-pyrrolo[2,3-d]pyrimidin-4-yl)piperidin-4-yl)-1Hbenzo[d]imidazole-5-carboxylate]",activity at 1 µM,[1],95.5%
same,activity at 1 µM,[2],76.6%
same,activity at 1 µM,[3],60.3%
same,activity at 1 µM,[4],90.2%
same,activity at 1 µM,[5],82.7%
same,activity at 1 µM,[6],85%
same,activity at 1 µM,[7],94.2%
same,activity at 1 µM,[8],87.8%
same,activity at 1 µM,[9],91.1%
same,activity at 1 µM,[10],86.5%
same,activity at 1 µM,[11],90%
same,activity at 1 µM,[12],90.5%
same,activity at 1 µM,[13],85.1%
same,activity at 1 µM,[14],61.1%
same,activity at 1 µM,[15],95.2%
same,activity at 1 µM,[16],85.7%
same,activity at 1 µM,[17],75.6%
same,activity at 1 µM,[18],96.5%
same,activity at 1 µM,[19],67.2%
same,activity at 1 µM,[20],98.6%
same,activity at 1 µM,[21],98.2%
same,activity at 1 µM,[22],78.6%
same,activity at 1 µM,[23],97.6%
same,activity at 1 µM,[24],24%
same,activity at 1 µM,[25],58.6%
same,activity at 1 µM,[26],47.2%
same,activity at 1 µM,[27],42.3%
same,activity at 1 µM,[28],29.5%
same,activity at 1 µM,[29],61%
same,activity at 1 µM,[30],108%
same,activity at 1 µM,[31],48.6%
same,activity at 1 µM,[32],82.4%
same,activity at 1 µM,[33],82%
same,activity at 1 µM,[34],98.5%
same,activity at 1 µM,[35],98.5%
same,activity at 1 µM,[36],92.4%
same,activity at 1 µM,[37],81.3%
same,activity at 1 µM,[38],10%
